Data set [1] can be described thus: Lipophilicity, log D of the compound at pH 7.4 after 30 mins by HPLC/UV analysis. It is filed as physicochemical. As to conditions: buffer.
A short description of data set [2]: Apparent permeability across basolateral to apical side in human Caco2 cells measured at 60 to 120 mins by LC/MS/MS analysis. In kind it is ADME, cell-based. To be noted: for Papp B→A: Caco-2, read-out: permeability; for permeability: Caco-2.
Data set [3] is described as follows: Half life in human plasma at 2 uM up to 4 hrs by LC/MS/MS analysis. It is filed as ADME, cell-free.
The nature of data set [4]: Apparent permeability across apical to basolateral side in human Caco2 cells measured at 60 to 120 mins by LC/MS/MS analysis. To be noted: for Papp A→B: Caco-2, read-out: permeability; for permeability: Caco-2. It is filed as ADME, cell-based.
A short description of data set [5]: Half life in dog plasma at 2 uM up to 4 hrs by LC/MS/MS analysis. In kind it is ADME, cell-free, Canis lupus familiaris.
Data set [6] can be described thus: Half life in rat plasma at 2 uM up to 4 hrs by LC/MS/MS analysis. In kind it is ADME, cell-free.
The nature of data set [7]: Oral bioavailability in Beagle dog at 5 mg/kg by HPLC/MS analysis. It is filed as ADME, organism-based, Canis lupus familiaris. As to conditions: in vivo.
Data set [8] can be described thus: Clearance in Sprague-Dawley rat at 1 mg/kg, iv or 5 mg/kg, po by HPLC/MS analysis. In kind it is ADME, organism-based. As to conditions: in vivo.
Data set [9] in a line: Clearance in Beagle dog at 1 mg/kg, iv or 5 mg/kg, po by HPLC/MS analysis. To be noted: in vivo. It is filed as ADME, organism-based, Canis lupus familiaris.
Data set [10] in a line: Volume of distribution at steady state in Beagle dog at 1 mg/kg, iv or 5 mg/kg, po by HPLC/MS analysis. It is filed as ADME, organism-based, Canis lupus familiaris. To be noted: in vivo, read-out: Vdss.
A short description of data set [11]: Terminal half life in Beagle dog at 1 mg/kg, iv or 5 mg/kg, po by HPLC/MS analysis. It is filed as ADME, organism-based, Canis lupus familiaris. To be noted: in vivo, read-out: beta t1/2 (converted).
A short description of data set [12]: Volume of distribution at steady state in Sprague-Dawley rat at 1 mg/kg, iv or 5 mg/kg, po by HPLC/MS analysis. As to conditions: in vivo, read-out: Vdss. It is filed as ADME, organism-based.
The nature of data set [13]: Terminal half life in Sprague-Dawley rat at 1 mg/kg, iv or 5 mg/kg, po by HPLC/MS analysis. To be noted: in vivo, read-out: beta t1/2 (converted). It is filed as ADME, organism-based.
Data set [14] in a line: Oral bioavailability in Sprague-Dawley rat at 5 mg/kg by HPLC/MS analysis. It is filed as ADME, organism-based. To be noted: in vivo.
Data set [15] can be described thus: Aqueous solubility of the compound at pH 7.2. It is filed as physicochemical.
Data set [16] in a line: Terminal half life in Sprague-Dawley rat at 10 mg/kg, iv or 10 mg/kg, po by HPLC/MS analysis. It is filed as ADME, organism-based. As to conditions: in vivo, read-out: beta t1/2 (converted).
Data set [17] in a line: Clearance in Sprague-Dawley rat at 10 mg/kg, iv or 10 mg/kg, po by HPLC/MS analysis. In kind it is ADME, organism-based. As to conditions: in vivo.
Data set [18] in a line: Oral bioavailability in Sprague-Dawley rat at 10 mg/kg by HPLC/MS analysis. It is filed as ADME, organism-based. As to conditions: in vivo.
The nature of data set [19]: Volume of distribution at steady state in Sprague-Dawley rat at 10 mg/kg, iv or 10 mg/kg, po by HPLC/MS analysis. It is filed as ADME, organism-based. To be noted: in vivo, read-out: Vdss.

A value given as a limit tells only on which side of the number the result lay.

The logD is lipophilicity at a set pH, counting ionised and neutral species. Consider `CC(C)[C@@H]1NC(=O)C/C=C/c2ccc3ccc(nc3c2)[C@@H](C)OC(=O)[C@@H]2CCCN(N2)C(=O)[C@H](C)NC1=O`, for which the logD at 0.5 h in data set [1] was determined as 2.1. Moreover, in data set [2], the Papp B→A worked out at 3.5 ×10⁻⁶ cm/s. For the same molecule, the half-life at 2 µM is 8.87 h in [3] and > 25 h in data set [5]. Moreover, the Papp A→B in [4] was 1.2 ×10⁻⁶ cm/s.
In data set [1], `CC(C)[C@@H]1OC(=O)C(C)(C)/C=C/c2cc3cc(ccc3cn2)[C@@H](C)NC(=O)[C@@H]2CCCN(N2)C(=O)[C@H](C)NC1=O` yielded a logD at 0.5 h of 2. Besides, the values for the half-life at 2 µM in [6], in data set [3] and in data set [5] were 9.4 h, > 25 h and 12.2 h, respectively. Further, the Papp B→A in [2] was 7.9 ×10⁻⁶ cm/s. For the same molecule, the Papp A→B in [4] amounted to 0.1 ×10⁻⁶ cm/s.
`CC(C)[C@@H]1OC(=O)C2(/C=C/c3ccc4ccc(nc4c3)[C@@H](C)NC(=O)[C@@H]3CCCN(N3)C(=O)[C@H](C)NC1=O)COCCOC2` had a logD at 0.5 h in [1] of 2.1. For the same molecule, the Papp B→A in data set [2] came out at 10 ×10⁻⁶ cm/s. In data set [4], the Papp A→B worked out at 0.72 ×10⁻⁶ cm/s.
For `CO[C@H]1CC[C@@]2(/C=C/c3ccc4ccc(nc4c3)[C@@H](C)NC(=O)[C@@H]3CCCN(N3)C(=O)[C@H](C)NC(=O)[C@H](C(C)C)OC2=O)CC1` the same measures were 3.1, 33 ×10⁻⁶ cm/s and 13 ×10⁻⁶ cm/s.
In the case of `CC(C)[C@@H]1OC(=O)C2(/C=C/c3ccc4ccc(nc4c3)[C@@H](C)NC(=O)[C@@H]3CCCN(N3)C(=O)[C@H](C)NC1=O)CCC(O)CC2` (stereo in doubt; 47), the log distribution coefficient (logD) at 0.5 h in data set [1] was 1.9. For the same molecule, the Papp B→A in data set [2] was found to be 9.2 ×10⁻⁶ cm/s. Besides, the Papp A→B in data set [4] came out at 0.61 ×10⁻⁶ cm/s.
As a reminder, the bioavailability is the share of a dose that reaches the circulation, judged against a reference dose that is usually intravenous. Consider `CC(C)[C@@H]1NC(=O)C/C=C/c2cc3cc(ccc3cn2)[C@@H](C)OC(=O)[C@@H]2CCCN(N2)C(=O)[C@H](C)NC1=O`, for which the logD at 0.5 h in data set [1] was 1.1. For the same molecule, the half-life at 2 µM stood at 0.133 h in data set [6], 9.32 h in [3] and 6.95 h in data set [5]. Besides, the bioavailability in data set [7] came out at 8%. The Papp B→A in [2] came out at 13 ×10⁻⁶ cm/s. Moreover, in data set [4], the Papp A→B was 0.32 ×10⁻⁶ cm/s.
The molecule `CC(C)[C@@H]1OC(=O)C(CO)(CO)/C=C/c2ccc3ccc(nc3c2)[C@@H](C)NC(=O)[C@@H]2CCCN(N2)C(=O)[C@H](C)NC1=O` registered a log distribution coefficient (logD) at 0.5 h in [1] of 1. Besides, the Papp B→A in data set [2] worked out at 0.59 ×10⁻⁶ cm/s. Further, the Papp A→B in [4] was found to be 0.08 ×10⁻⁶ cm/s.
In data set [1], `CO[C@H]1C(=O)N[C@@H](C(C)C)C(=O)N[C@@H](C)C(=O)N2CCC[C@H](N2)C(=O)O[C@H](C)c2cccc(c2)/C=C/CC[C@H]1C` yielded a logD at 0.5 h of 2.9. Moreover, the half-life at 2 µM in [6] is 0.0833 h; in data set [3], > 25 h; in [5], 10 h. In [2], the Papp B→A turned out to be 31 ×10⁻⁶ cm/s. The Papp A→B in data set [4] came out at 12 ×10⁻⁶ cm/s.
For `CC(C)[C@@H]1OC(=O)C2(/C=C/c3ccc4ccc(nc4c3)[C@@H](C)NC(=O)[C@@H]3CCCN(N3)C(=O)[C@H](C)NC1=O)CCOCC2`, the logD at 0.5 h in [1] was 2.4. For the same molecule, the Papp B→A in data set [2] is 19 ×10⁻⁶ cm/s. Moreover, the Papp A→B in [4] came to 3.2 ×10⁻⁶ cm/s.
Consider `CC(C)[C@@H]1OC(=O)C(C)(C)/C=C/c2ccc3ccc(nc3c2)[C@@H](C)NC(=O)[C@@H]2CCCN(N2)C(=O)[C@H](C)NC1=O`, for which the results for the clearance in [8] and in data set [9] were 10.8 mL/min/kg and 6 mL/min/kg, respectively. Further, the logD at 0.5 h in [1] turned out to be 3.2. For the same molecule, the figures for the half-life at 2 µM in data set [6], in data set [3] and in data set [5] were 6.87 h, > 25 h and > 25 h, respectively. In addition, the results for the Vd in [10] and in data set [12] were 3.9 L/kg and 2.5 L/kg, respectively. For the same molecule, the half-life in data set [11] is 10 h; in [13], 3.9 h. For the same molecule, the bioavailability worked out at 100% in [7] and 90% in data set [14]. The permeability was found to be 47 ×10⁻⁶ cm/s in [2] and 17 ×10⁻⁶ cm/s in [4].
A word on the solubility: it is how much of the substance goes into solution per volume. Consider `CC(C)[C@@H]1NC(=O)C(C)(C)/C=C/c2cc3cc(ccc3cn2)[C@@H](C)OC(=O)[C@@H]2CCCN(N2)C(=O)[C@H](C)NC1=O`, for which the logD at 0.5 h in data set [1] amounted to 2.1. For the same molecule, the Papp B→A in data set [2] is 34 ×10⁻⁶ cm/s. Moreover, the half-life at 2 µM in data set [3] and in data set [5] was > 25 h in each case. In data set [4], the Papp A→B is 2.3 ×10⁻⁶ cm/s. Also, the solubility in [15] is < 6 µg/mL.
In turn, `CC(C)[C@@H]1OC(=O)C2(/C=C/c3ccc4ccc(nc4c3)[C@@H](C)NC(=O)[C@@H]3CCCN(N3)C(=O)[C@H](C)NC1=O)CCS(=O)(=O)CC2` gave a logD at 0.5 h in data set [1] of 1.9. The Papp B→A in [2] was 12 ×10⁻⁶ cm/s. Also, the Papp A→B in data set [4] came out at 0.48 ×10⁻⁶ cm/s.
Molecule `CC(C)[C@@H]1NC(=O)C(C)(C)/C=C/c2ccc3ccc(nc3c2)[C@@H](C)OC(=O)[C@@H]2CCCN(N2)C(=O)[C@H](C)NC1=O` yielded a pH-dependent lipophilicity (logD) at 0.5 h in [1] of 2.7. In addition, the half-life at 2 µM in data set [6] was 0.25 h; in [3], 17.1 h; in data set [5], > 25 h. Moreover, the Papp B→A in data set [2] was 21 ×10⁻⁶ cm/s. In data set [4], the Papp A→B is 2 ×10⁻⁶ cm/s. Further, in data set [15], the solubility is < 6 µg/mL.
In the case of `CC(C)[C@@H]1OC(=O)C2(/C=C/c3ccc4ccc(nc4c3)[C@@H](C)NC(=O)[C@@H]3CCCN(N3)C(=O)[C@H](C)NC1=O)COCOC2`, the half-life in data set [16] is 24 h; in [11], 25 h. This molecule registered a logD at 0.5 h in data set [1] of 2.2. Also, the clearance is 1.33 mL/min/kg in [9] and 7 mL/min/kg in [17]. Besides, the half-life at 2 µM in [6], in [3] and in data set [5] was > 25 h in each case. Besides, the Vd in data set [10] stood at 2.3 L/kg; in data set [19], 12 L/kg. The bioavailability in data set [7] was 55%; in data set [18], 100%. The Papp B→A in data set [2] is 13 ×10⁻⁶ cm/s. Also, the Papp A→B in data set [4] amounted to 1.5 ×10⁻⁶ cm/s.
In data set [1], `CO[C@@H]1/C=C/c2cc3cc(ccc3cn2)[C@@H](C)OC(=O)[C@@H]2CCCN(N2)C(=O)[C@H](C)NC(=O)[C@H](C(C)C)NC(=O)[C@@H]1C` displayed a logD at 0.5 h of 2.1. The half-life at 2 µM is 0.0833 h in data set [6], 12.5 h in data set [3] and 17.4 h in data set [5]. Further, the Papp B→A in data set [2] was 37 ×10⁻⁶ cm/s. Further, the Papp A→B in [4] was 4.4 ×10⁻⁶ cm/s.
On to `CC(C)[C@@H]1NC(=O)C/C=C/c2ccc3ccc(cc3c2)[C@@H](C)OC(=O)[C@@H]2CCCN(N2)C(=O)[C@H](C)NC1=O`, for which, in data set [1], the logD at 0.5 h amounted to 2.5. For the same molecule, the Papp B→A in data set [2] stood at 38 ×10⁻⁶ cm/s. For the same molecule, the half-life at 2 µM in data set [3] and in [5] was > 25 h throughout. The Papp A→B in [4] is 6.2 ×10⁻⁶ cm/s.
Molecule `CC(C)[C@@H]1NC(=O)CC/C=C/c2cc3cc(ccc3cn2)[C@@H](C)OC(=O)[C@@H]2CCCN(N2)C(=O)[C@H](C)NC1=O` registered a log distribution coefficient (logD) at 0.5 h in data set [1] of 1.6. The half-life at 2 µM was 0.133 h in data set [6], > 25 h in [3] and > 25 h in [5]. For the same molecule, the Papp B→A in data set [2] stood at 25 ×10⁻⁶ cm/s. Also, the Papp A→B in data set [4] came to 0.33 ×10⁻⁶ cm/s.
As to `CC(C)[C@@H]1OC(=O)C2(/C=C/c3ccc4ccc(nc4c3)[C@@H](C)NC(=O)[C@@H]3CCCN(N3)C(=O)[C@H](C)NC1=O)CCC(O)CC2` (stereo in doubt; 48), the permeability was found to be 7.1 ×10⁻⁶ cm/s in data set [2] and 0.9 ×10⁻⁶ cm/s in [4].

Source of the values: ChEMBL document CHEMBL4152348, “Discovery of a Potent and Orally Bioavailable Cyclophilin Inhibitor Derived from the Sanglifehrin Macrocycle” (J Med Chem, 2018).
